According to patent publication US11407725B2 (The Board of Trustees of the University of Illinois, priority 2018, dated 2022):
Values joined by “and” are separate entries in the source; they are usually repeats but may differ in a detail not shown here. Equal entries are not always repeated.

Columns and labels:
A549 cells = experiment: Confocal imaging of A549 cells with red-AlDeSense; assay type: cell-based; details: 1 μM dye
Description: Nunc™ Lab-Tek™ 8-well Chamber Coverglass (Thermo Fisher) were coated with poly-L-lysine (Trevigen). For cells that were also stained with an antibody, 2,000,000 cells were transferred to an Eppendorf tube. The cells were resuspended in 200 μL of antibody buffer (5% BSA and 1 mg/mL NaN3 in PBS) and treated with 2 μL FITC-labeled anti-CD44 antibody (10 mg/mL, Sino Biological) and left on ice for 20 minutes. In all cases, cells were added at 150,000 cells/well to the coated slides 1 hour prior to imaging. […] Cells were treated with 100 uL red-AlDeSense or Ctrl-red-AlDeSense solution (4 μM dye in imaging buffer; dyes were normalized by fluorescence spectroscopy) and 0.8 μL Hoescht 33342 (5 mg/mL in PBS) for 10 minutes. […] Hoescht 33342 was excited with a 405 nm laser and detected with a 415-502 filter set. FITC was excited with a 488 nm laser and detected with a 502-561 filter set. […] was excited with a 594 nm laser and detected with a 600-735 filter set. […] Images were analyzed using ZEN 3.0 (blue edition) software. Mean fluorescence for the FITC-labeled anti-CD44 antibody was multiplied by the cell diameter to account for its 1-dimensional cell membrane staining, as opposed to 2-dimensional intracellular staining of (Ctrl-)red-AlDeSense.

K562 cells = experiment: Trypan blue cytotoxicity / viability assay; assay type: cell-based; details: K562 cells; 6, 12 and 24 hours
Description: K562 cells were plated in a 96-well plate with 50,000 cells per well. Each well was filled to a final volume of 100 μL IMDM media with 0.25% DMSO. Wells were tested using red-AlDeSense or Ctrl-red-AlDeSense (1 μM and 5 μM each) or using a DMSO control. After 6-, 12-, and 24-hour incubation periods at 37° C. and 5% CO2, a 10 μL sample was removed from each condition and combined with 10 μL 0.4% w/v trypan blue in PBS. Samples were incubated for 3 minutes at room temperature before being loaded on a hemocytometer where live and dead cells were counted. Conditions were tested in triplicate for each time point. Samples were analyzed on an EVOS digital inverted microscope using transmitted white light for brightfield imaging and the Cy5 filter cube for trypan blue visualization.
K562 cells were plated in a 96-well plate at a density of 500,000 cells/mL in full IMDM media supplemented with either 1 μM or […] AlDeSense AM. Equivalent samples were supplemented with 1 μM or […] as a vehicle control. At 6, 12, and 24 hours, a 10 μL sample was removed from each of the samples and mixed 1:1 with a 0.4% wt/volume trypan blue solution in PBS. Samples were incubated for 1 minute at room temperature before being loaded onto a hemocytometer where live and dead cells were counted. Each sample was made in triplicate for each time point.

[1] = Response to reactive species, biological thiols and amines (chemostability)
Description: (e) Response of AlDeSense to various reactive oxygen species, biological thiols, and amines at concentrations of 100 μM (GSH was tested at 1 mM). For all assays, AlDeSense was used at 1 μM final concentration.
All assays were performed in 50 mM triethanolamine buffer red-AlDeSense was used at 2 μM. Enzyme concentrations affording 1 nmol substrate/minute were used. Reactive species were tested at 100 μM, except glutathione which was at 1 mM.

[2] = Photophysical properties (absorbance, emission, extinction coefficient, quantum yield); assay type: physicochemical; details: for λabs: maximum absorbance
[3] = tested on: e-CSC and non-CSC melanoma lung metastases; experiment: Ex vivo lung metastases imaging; assay type: in vivo, mice; details: lungs perfused ex vivo, day 7 and 11
Description: Six to eight-week-old female C57BL/6J mice were purchased from Jackson Laboratory. Experimental metastases were established by injecting 2×10^5 melanoma cells via lateral tail vein injection. Mice were euthanized at either 7- or 11-days post injection. Immediately after euthanization, their lungs were excised and perfused with about 1 mL of either 15 μM AlDeSense AM or 15 μM Ctrl-AlDeSense AM in PBS. Outer portions of the lungs were rinsed in 15 mL of PBS to remove blood or excess dyes. After 2 hours incubation at room temperature (25° C.), the lungs were imaged on the IVIS spectrum imaging system (Perkin Elmer). Data was processed using Living Image software (Version 4.1).

[4] = tested on: e-CSC and non-CSC B16F0 tumors; experiment: In vivo melanoma tumor fluorescence imaging; parameters: species or system mice; details: 1 and 2 weeks
MDA-MB-231 mammospheres = experiment: Mammosphere culture and imaging; assay type: cell-based; details: 2 μM dye
Description: Mammosphere formation from MDA-MB-231 breast cancer cells was performed as described previously with some modifications. Cells were resuspended and diluted to a density of 2000 cells/mL in DMEM/F12 (Sigma-Aldrich) supplemented with 2% B27 supplement (Thermo Fisher), 40 ng/mL rhFGF-2 (Miltenyi Biotec), and 20 ng/mL rhEGF (Gibco®). They were plated in ultra-low attachment 6-well plates (Corning) and incubated at 37° C. and 5% CO2 for 5 days or until most mammospheres were between […]. At this point, the mammospheres were transferred to a 4-well chamber slide coated with Poly-L-lysine as described previously. The mammospheres were then either immediately imaged with AlDeSense or Ctrl-AlDeSense, or the media was exchanged with full DMEM media supplement with 10% FBS and non-essential amino acids to allow differentiation over 36 hours.
At various time points, the mammospheres were stained with 2 μM AlDeSense or Ctrl-AlDeSense as described above. Staining continued for 1 h at room temperature before imaging with a wide field fluorescence microscope (Zeiss Axiovert 200M). A GFP filter set was used to excite the fluorophores. Exposure times were set equally for all images taken within a data set and configured to give low signal in Ctrl-AlDeSense stained tumorspheres. Only mammospheres greater than 50 μm in diameter were considered in the analysis.

SMILES | A549 cells with high ALDH1A1 activity by confocal microscopy (A549 cells) | toxicity in cell viability assay (K562 cells) | chemostability across reactive oxygen, nitrogen and sulfur species ([1]; species 100 μM, glutathione 1 mM, 2 μM red-AlDeSense) | bathochromic shift in absorbance and emission compared to AlDeSense [2] | maximum emission (λem) [2] | Quantum Yield ([2]; Probes 1-8) | λabs [2] | fluorescence of e-CSC lungs versus non-CSC lungs [3] | signal in e-CSC versus non-CSC tumors [4] | brightness of mammospheres versus Ctrl-AlDeSense (MDA-MB-231 mammospheres) | response to thiols and amines ([1]; 100 μM (GSH 1 mM), 1 μM AlDeSense) | response to panel of reactive oxygen species ([1]; 100 μM species, 1 μM AlDeSense) | ε [2] | λcm ([2]; Table 1) | ΔE00 ([2]; at 503 nm, intersecting wavelength of normalized absorbance and emission) | ΦF ([2]; prior to activation)
Cc1cc(C=O)c(F)c(F)c1C1=C2C=CC(=O)C=C2[Si](C)(C)c2cc(O)ccc21 | 77.6% | nontoxic | only ALDH1A1 elicited turnover | 100 nm | 614 nm | 0.21 | 594 nm |  |  |  |  |  |  |  |  | 
Cc1cc(C=O)ccc1-c1c2cc(F)c(=O)cc-2oc2cc(O)c(F)cc12 [AlDeSense] |  | non-toxic |  |  |  |  | 496 nm | higher | consistently higher signal | 3 fold | did not detect formation of fluorescent hemithioacetal and Schiff base products | did not observe any oxidized fluorescent products | 61000 M⁻¹ cm⁻¹ | 516 nm | 2.46 eV | 0.04 and 0.041
